Source: patent publication US20190015650A1, “MICRONEEDLE TATTOO PATCHES AND USE THEREOF” (Massachusetts Institute of Technology, priority 2017, published 2019)

Tests used:
[1] = Chemical stability of dyes: hydrogen peroxide and pH; assay type: physicochemical
Description: Additional evaluations on the dyes to withstand oxidative stress were tested by submerging the dye in 3 mM or 3 micromolar hydrogen peroxide, and compared for signal before and after such treatment (FIG. 9B). 23 fluorophores were tested.
The pH stability of the dyes was evaluated by submerging in different pH ranging from 1 to 13 (FIG. 9C). 17 fluorophores were tested.

[2] = Photostability of dyes exposed to compact fluorescent (CFL) bulb; assay type: physicochemical
Description: Dyes were prepared in solution (1 mM) or suspension (1 mg/mL) and exposed to light from a compact fluorescent (CFL) bulb (FIG. 9A). 55 fluorophores were tested including organic, encapsulated organic, inorganic, inorganic nanoparticle, tattoo, and semiconducting polymer dots.

Row | Molecule | Performance: chemical stability [1] | Performance: photostability [2]
1 | CCN1C(=CC=CC=CC=CC2=[N+](CCCCCC(=O)O)c3ccc(S(=O)(=O)O)cc3C2(C)C)C(C)(C)c2cc(S(=O)(=O)[O-])ccc21 [CY7] | Poor chemical stability | Poor photostability
2 | O=C1OC2(c3ccc(O)cc3Oc3cc(O)ccc32)c2ccccc21 [Fluorescein] |  | Poor photostability
3 | CCCN1/C(=C/C=C2\CCCC(/C=C/C3=[N+](CCC)c4ccccc4C3(C)C)=C2Cl)C(C)(C)c2ccccc21.[I-] [IR780] | Poor chemical stability | Poor photostability
4 | CCN1/C(=C/C=C/C=C/C2=[N+](CCCCCC(=O)O)c3ccc(S(=O)(=O)O)cc3C2(C)C)C(C)(C)c2cc(S(=O)(=O)[O-])ccc21 [CY5] | Poor chemical stability | Poor photostability
5 | Rhodamine |  | Poor photostability
